Data from patent publication US6323001A, “Increasing the trehalose content of organisms by transforming them with combinations of the structural genes for trehalose synthase” (BTG International Ltd., priority 1994, dated 2001).
Like-named read-outs stand apart in the source and are kept apart here.

Tests used:
[1] = biological target: T1, Tre6P synthase activity of intact trehalose synthase (Saccharomyces cerevisiae, UniProt Q00764); test: Tre6P synthase assay of intact trehalose synthase; assay type: biochemical, baker's yeast; details: for EC50: read-out: K1/2 of activation by F6P; for Tre6P synthase activity, Intact Enzyme: 10 mM G6P, 5 mM UDPG, 5 mM F6P, without phosphate = 100%
T1 construct: Intact trehalose synthase was purified from commercial baker's yeast; made in house; host or cells: commercial baker's yeast (native enzyme purified, not recombinant)
T1 sequence (P31688 whole entry): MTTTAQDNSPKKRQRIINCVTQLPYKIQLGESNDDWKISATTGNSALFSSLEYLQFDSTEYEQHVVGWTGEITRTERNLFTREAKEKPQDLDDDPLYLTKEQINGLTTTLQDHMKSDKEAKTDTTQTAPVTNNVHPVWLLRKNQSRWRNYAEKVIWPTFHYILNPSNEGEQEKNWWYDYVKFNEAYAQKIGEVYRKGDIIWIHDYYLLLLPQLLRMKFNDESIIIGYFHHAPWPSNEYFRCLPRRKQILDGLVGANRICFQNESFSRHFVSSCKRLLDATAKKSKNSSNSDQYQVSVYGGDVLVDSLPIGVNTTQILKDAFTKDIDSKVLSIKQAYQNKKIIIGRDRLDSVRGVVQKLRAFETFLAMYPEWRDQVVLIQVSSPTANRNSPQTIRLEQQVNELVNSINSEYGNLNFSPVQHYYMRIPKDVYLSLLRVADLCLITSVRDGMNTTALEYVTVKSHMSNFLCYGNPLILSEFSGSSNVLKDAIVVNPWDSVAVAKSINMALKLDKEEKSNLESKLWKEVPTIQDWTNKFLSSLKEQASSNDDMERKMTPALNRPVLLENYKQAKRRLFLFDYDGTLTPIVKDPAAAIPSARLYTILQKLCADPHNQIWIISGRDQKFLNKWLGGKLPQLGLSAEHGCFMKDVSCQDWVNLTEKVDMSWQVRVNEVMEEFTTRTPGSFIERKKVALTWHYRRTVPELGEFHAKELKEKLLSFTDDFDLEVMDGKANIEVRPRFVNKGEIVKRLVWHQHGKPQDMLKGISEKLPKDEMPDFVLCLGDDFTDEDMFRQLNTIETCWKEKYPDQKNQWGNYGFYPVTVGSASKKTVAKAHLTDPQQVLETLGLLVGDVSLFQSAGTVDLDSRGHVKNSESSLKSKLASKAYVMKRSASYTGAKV
T1 sequence (P38427 whole entry, further chain): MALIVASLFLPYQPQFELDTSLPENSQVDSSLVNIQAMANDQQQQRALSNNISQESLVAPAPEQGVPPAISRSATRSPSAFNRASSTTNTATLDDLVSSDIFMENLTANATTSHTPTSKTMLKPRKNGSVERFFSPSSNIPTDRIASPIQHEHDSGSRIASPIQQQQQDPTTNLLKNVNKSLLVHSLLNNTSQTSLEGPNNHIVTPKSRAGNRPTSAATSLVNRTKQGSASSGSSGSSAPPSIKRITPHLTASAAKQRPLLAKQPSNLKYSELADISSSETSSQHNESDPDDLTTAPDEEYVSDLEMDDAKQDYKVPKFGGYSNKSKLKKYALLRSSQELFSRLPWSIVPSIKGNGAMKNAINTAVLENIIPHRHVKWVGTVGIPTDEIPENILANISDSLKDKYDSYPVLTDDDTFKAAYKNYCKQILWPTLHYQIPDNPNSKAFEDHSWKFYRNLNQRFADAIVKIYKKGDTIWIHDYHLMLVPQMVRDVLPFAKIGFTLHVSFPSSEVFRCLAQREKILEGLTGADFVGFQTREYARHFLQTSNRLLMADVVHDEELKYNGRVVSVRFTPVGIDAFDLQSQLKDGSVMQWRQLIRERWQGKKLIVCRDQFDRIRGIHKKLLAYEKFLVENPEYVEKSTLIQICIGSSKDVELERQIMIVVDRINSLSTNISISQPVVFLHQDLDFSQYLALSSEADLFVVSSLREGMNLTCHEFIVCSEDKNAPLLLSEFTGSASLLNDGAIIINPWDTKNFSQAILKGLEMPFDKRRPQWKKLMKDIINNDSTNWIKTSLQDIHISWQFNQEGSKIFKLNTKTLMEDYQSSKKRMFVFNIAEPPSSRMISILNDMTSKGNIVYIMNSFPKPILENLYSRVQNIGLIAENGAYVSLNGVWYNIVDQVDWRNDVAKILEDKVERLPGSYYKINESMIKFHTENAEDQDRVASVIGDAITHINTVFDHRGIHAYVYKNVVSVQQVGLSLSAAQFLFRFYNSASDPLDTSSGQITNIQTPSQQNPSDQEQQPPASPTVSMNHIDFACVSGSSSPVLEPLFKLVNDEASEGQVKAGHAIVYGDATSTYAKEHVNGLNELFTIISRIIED
T1 sequence (Q00764 whole entry): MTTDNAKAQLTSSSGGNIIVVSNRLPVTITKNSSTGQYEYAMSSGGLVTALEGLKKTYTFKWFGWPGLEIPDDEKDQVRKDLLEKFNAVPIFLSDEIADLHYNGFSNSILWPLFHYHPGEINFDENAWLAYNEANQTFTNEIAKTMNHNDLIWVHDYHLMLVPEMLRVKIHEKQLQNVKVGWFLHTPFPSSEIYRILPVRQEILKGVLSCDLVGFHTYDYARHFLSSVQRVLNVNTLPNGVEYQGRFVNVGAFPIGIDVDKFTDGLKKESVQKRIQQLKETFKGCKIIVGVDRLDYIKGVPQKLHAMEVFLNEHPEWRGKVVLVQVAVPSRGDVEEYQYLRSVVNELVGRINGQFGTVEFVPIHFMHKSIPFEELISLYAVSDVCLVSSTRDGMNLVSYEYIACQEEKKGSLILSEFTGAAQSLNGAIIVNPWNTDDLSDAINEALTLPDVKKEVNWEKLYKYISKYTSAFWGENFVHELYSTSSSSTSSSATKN
Method: (§1) With microbial materials, Tre6Pase and Tre6P synthase standard assays and other kinetic measurements were made as described by Londesborough & Vuorio [(1991) loc. cit.] except that the standard Tre6P synthase assay mixture contained 5 mM F6P unless stated otherwise.
Removal of the N-terminal 325 or so amino acids from the 123 kDa long chain of intact trehalose synthase by treatment with trypsin in vitro produces an enzyme with catalytic properties like those of the truncated enzyme purified by Londesborough & Vuorio [(1991) loc. cit.]. In one experiment intact trehalose synthase (0.28 Tre6P synthase units, ≈9.4 μg) was incubated with or without 0.5 μg of trypsin at 30° C. in 250 μl of 13 mM HEPES pH 7.0 containing 1 mM MgCl2, 0.5 mM EDTA, 0.5 mM dithiothreitol, 0.2 M NaCl and 0.5 mM benzamidine. Its Tre6P synthase activity was determined at intervals using standard assay mixtures (containing 5 mM F6P) containing no or 4 mM K phosphate pH 6.8, and samples were prepared for SDS-PAGE analysis immediately before and 48 min after addition of the trypsin.
(§2) Truncated trehalose synthase was prepared as described by Londesborough & Vuorio [(1991) loc. cit.] and contained the 57 kDa short chain and 86 and 93 kDa fragments of the long chain. Intact trehalose synthase was prepared as in Example 1. Kinetic assays were done at 30° C. as described in General Methods and Materials.

[2] = biological target: Tre6Pase activity of truncated trehalose synthase (Saccharomyces cerevisiae, UniProt P31688); test: Tre6Pase assay of truncated trehalose synthase; assay type: biochemical, baker's yeast
Chain of Tre6Pase activity of truncated trehalose synthase (P31688 whole entry, the tested form may be a part): as the sequence (P31688 whole entry) above
Chain of Tre6Pase activity of truncated trehalose synthase (Q00764 whole entry, further chain, the tested form may be a part): as the sequence (Q00764 whole entry) above
Chain of Tre6Pase activity of truncated trehalose synthase (P38427 336-1098, further chain): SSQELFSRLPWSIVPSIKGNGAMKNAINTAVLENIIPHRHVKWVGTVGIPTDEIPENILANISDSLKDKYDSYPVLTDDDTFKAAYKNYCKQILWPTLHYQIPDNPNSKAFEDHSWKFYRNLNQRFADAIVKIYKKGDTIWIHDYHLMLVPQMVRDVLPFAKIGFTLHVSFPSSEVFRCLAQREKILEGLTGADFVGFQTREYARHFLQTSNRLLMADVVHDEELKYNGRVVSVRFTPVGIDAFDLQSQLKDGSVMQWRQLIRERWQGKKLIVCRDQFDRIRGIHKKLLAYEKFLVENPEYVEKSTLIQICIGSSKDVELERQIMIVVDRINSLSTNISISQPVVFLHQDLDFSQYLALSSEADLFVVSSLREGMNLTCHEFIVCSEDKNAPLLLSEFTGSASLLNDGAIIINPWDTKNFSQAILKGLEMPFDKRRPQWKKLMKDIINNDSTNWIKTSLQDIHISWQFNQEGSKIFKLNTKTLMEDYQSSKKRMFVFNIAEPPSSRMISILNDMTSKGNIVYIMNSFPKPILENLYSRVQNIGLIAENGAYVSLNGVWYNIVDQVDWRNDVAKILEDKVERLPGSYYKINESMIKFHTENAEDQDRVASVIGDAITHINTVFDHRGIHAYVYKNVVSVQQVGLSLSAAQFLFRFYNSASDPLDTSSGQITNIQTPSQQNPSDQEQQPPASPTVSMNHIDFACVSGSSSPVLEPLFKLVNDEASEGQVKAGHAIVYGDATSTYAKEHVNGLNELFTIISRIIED
Method: as §1
Truncated trehalose synthase containing the short (57 kDa) chain and the 86 and 93 kDa long chain fragments was prepared according to the method of Londesborough & Vuorio (1991) loc. cit.] for proteolytically activated TPS/P complex. Tre6P synthase and Tre6Pase activities were assayed as described by Londesborough & Vuorio [(1991) loc. cit.]. [N-ethyl-1-^14C]-maleimide (ethyl-labelled NEM; 40 mCi/mmol) was NEC-454 from New England Nuclear. N-ethyl-[2,3-^14 C]-maleimide (ring-labelled NEM; 6 mCi/mmol) was CFA 293 from Amersham International. Both were obtained as solutions in n-pentane and the manufacturer's stated specific activities were assumed to be correct. Unlabelled N-ethyl-maleimide (NEM) was E-3876 from Sigma. It was dissolved in 25 mM HEPES pH 7.0 immediately before use and standardized by absorption measurements at 305 nm, assuming an E^mM of 0.62.
In one experiment, 2.0 μl of 2.4 mM ethyl-labelled NEM was mixed with 150 μl of gel-filtered enzyme and incubated at 23° C. Samples (10 μl) taken at various times up to 190 min were mixed with 60 μl of Laemmli sample buffer (the mercapto-ethanol in this buffer should destroy residual NEM), boiled for 5 min and subjected to SDS-PAGE. At closely similar times (and also at 23 h) other samples (10 μl) were mixed with 100 μl (for Tre6P synthase) or 700 μl (for Tre6Pase) of 5 mg BSA/ml 25 mM HEPES pH 7.0 containing 2 mM MgCl2, 1 mM EDTA, 0.2 M NaCl and 1 mM dithiothreitol (the dithiothreitol should destroy residual NEM) and assayed for Tre6P synthase and Tre6Pase.
as §2

Row | SMILES | EC50 ([1]; 1.3 mM phosphate) | EC50 ([1]; no added phosphate) | inhibition at 5000 µM ([2]; read-out: inhibition of Tre6Pase activity, 5 mM F6P, saturating phosphate concentrations, truncated enzyme) | inhibition at 5000 µM ([2]; read-out: inhibition of Tre6Pase activity, 5 mM F6P, sub-optimal phosphate concentrations, truncated enzyme) | Tre6P synthase activity, Intact Enzyme ([1]; 1.3 mM added K phosphate pH 6.8) | Tre6P synthase activity, Intact Enzyme ([1]; 4.0 mM added K phosphate pH 6.8) | EC50 ([2]; initial rates, truncated enzyme, read-out: K1/2 of activation of Tre6Pase by phosphate)
1 | O=C(CO)[C@@H](O)[C@H](O)[C@H](O)COP(=O)(O)O [Transformant F6P, Fructose 6-phosphate] | 1.4 mM | 0.06 mM | 10 to 15% | 20 to 30% |  |  | 
2 | O=P(O)(O)O [phosphate, K phosphate] |  |  |  |  | 69% | 14% | 3 mM
